From ChEMBL document CHEMBL1135036, “Synthesis and antibacterial evaluation of novel 2-[N-Imidoylpyrrolidinyl] carbapenems” (Bioorg Med Chem Lett, 2002)
≈ marks a conversion by molar mass, not a printed value.

What was measured:
[1] = system: Staphylococcus aureus; experiment: In vitro antibacterial activity against Staphylococcus aureus 3004 Methicillin-resistant Staphylococcus aureus.; type: functional
[2] = system: Proteus vulgaris; experiment: In vitro antibacterial activity against Proteus vulgaris IAM 1025.; type: functional
[3] = system: Pseudomonas aeruginosa; experiment: In vitro antibacterial activity against Ps. auruginosa 26.; type: functional
[4] = biological target: T1, Dipeptidase 1 (Sus scrofa) (UniProt P22412); experiment: Tested for stability of compound to swine renal DHP-1 relative to imipenem (IMP); type: functional
T1 sequence (whole entry): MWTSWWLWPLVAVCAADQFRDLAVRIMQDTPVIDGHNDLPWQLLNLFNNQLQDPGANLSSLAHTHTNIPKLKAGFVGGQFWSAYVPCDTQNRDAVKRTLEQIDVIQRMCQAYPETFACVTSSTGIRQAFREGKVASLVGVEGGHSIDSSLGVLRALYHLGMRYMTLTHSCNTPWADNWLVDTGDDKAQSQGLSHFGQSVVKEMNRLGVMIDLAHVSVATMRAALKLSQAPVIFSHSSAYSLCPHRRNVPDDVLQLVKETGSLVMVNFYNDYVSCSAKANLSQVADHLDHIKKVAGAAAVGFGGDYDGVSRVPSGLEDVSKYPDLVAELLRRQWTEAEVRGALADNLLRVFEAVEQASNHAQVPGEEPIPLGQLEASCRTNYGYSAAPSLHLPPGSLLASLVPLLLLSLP

[5] = system: Staphylococcus aureus; experiment: In vitro antibacterial activity against Staphylococcus aureus 209P JC-1.; type: functional
[6] = Tested for urinary recovery in mice after subcutaneous administration of 20 mg/Kg; type: ADME, organism-based; settings: mouse, urine, sc, read-out: Recovery
[7] = system: Escherichia coli; experiment: In vitro antibacterial activity against Escherichia coli NIHJ JC-2.; type: functional
[8] = biological target: T2, Dipeptidase 1 (Homo sapiens) (UniProt P16444); experiment: Compound stability against human renal DHP-1 relative to imipenem (IMP); type: functional
T2 sequence (whole entry): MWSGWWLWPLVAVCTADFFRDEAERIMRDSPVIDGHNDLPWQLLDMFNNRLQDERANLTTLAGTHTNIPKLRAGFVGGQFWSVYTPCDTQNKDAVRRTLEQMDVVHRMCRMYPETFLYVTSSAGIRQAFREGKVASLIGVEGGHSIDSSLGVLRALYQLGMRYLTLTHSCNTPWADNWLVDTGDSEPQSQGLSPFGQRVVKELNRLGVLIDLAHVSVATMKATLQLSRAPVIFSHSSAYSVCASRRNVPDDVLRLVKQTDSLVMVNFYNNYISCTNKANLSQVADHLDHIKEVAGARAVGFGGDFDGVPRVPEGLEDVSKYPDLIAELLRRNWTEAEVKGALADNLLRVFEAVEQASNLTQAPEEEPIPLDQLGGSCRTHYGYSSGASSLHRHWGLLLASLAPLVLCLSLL

[9] = system: Pseudomonas aeruginosa; experiment: Tested in vitro for antibacterial activity against Ps. aeruginosa 26; type: functional
[10] = biological target: T2, Dipeptidase 1 (Homo sapiens); experiment: Tested for stability of compound to human renal DHP-1 relative to imipenem (IMP); type: functional

Row | Structure (SMILES) | MIC [1] [µg/mL] | MIC [2] [µg/mL] | MIC [3] [µg/mL] | Stability [4] [%] | MIC [5] [µg/mL] | dose excreted [6] [%] | MIC [7] [µg/mL] | Stability [8] [%] | MIC [9] [µg/mL] | Stability [10] [%]
1 | C[C@@H](O)[C@H]1C(=O)N2C(C(=O)O)=C(C3CNC3)C[C@H]12 | 100 (≈ 396 µM) | 3.13 (≈ 12.4 µM) | 1.56 (≈ 6.18 µM) | 2 | 0.05 (≈ 0.198 µM) | 45 | 1.56 (≈ 6.18 µM) |  |  | 
2 | C[C@@H](O)[C@H]1C(=O)N2C(C(=O)O)=C([C@@H]3CCNC3)C[C@H]12 | 50 (≈ 188 µM) | 6.25 (≈ 23.5 µM) | 0.39 (≈ 1.46 µM) | 8.8 | < 0.025 | 37 | 0.2 (≈ 0.751 µM) | 48 |  | 
3 | C[C@@H](O)[C@H]1C(=O)N2C(C(=O)O)=C(C3CCNC3)C[C@H]12 (stereo partly drawn) | 100 (≈ 376 µM) | 12.5 (≈ 46.9 µM) | 0.78 (≈ 2.93 µM) | 13 | < 0.025 | 42 | 0.39 (≈ 1.46 µM) | 58 |  | 
4 | CC(=N)N1CC[C@@H](C2=C(C(=O)O)N3C(=O)[C@H]([C@@H](C)O)[C@H]3C2)C1 | 6.25 (≈ 20.3 µM) | 1.56 (≈ 5.08 µM) | 0.78 (≈ 2.54 µM) | 8.4 | < 0.025 | 44 | 0.2 (≈ 0.651 µM) | 34 |  | 
5 | C[C@@H](O)[C@H]1C(=O)N2C(C(=O)O)=C(SCCNC=N)C[C@H]12 [IMIPENEM ANHYDROUS] | 100 (≈ 334 µM) | 3.1 (≈ 10.4 µM) | 0.78 (≈ 2.61 µM) | 100 | < 0.025 |  | 0.78 (≈ 2.61 µM) | 100 |  | 
6 | C[C@@H](O)[C@H]1C(=O)N2C(C(=O)O)=C(C3CCNCC3)C[C@H]12 | > 100 | 12.5 (≈ 44.6 µM) |  | 18 | 0.05 (≈ 0.178 µM) | 43 | 1.56 (≈ 5.56 µM) |  | 0.78 (≈ 2.78 µM) | 
7 | C[C@@H](O)[C@H]1C(=O)N2C(C(=O)O)=C([C@@H]3CCN(C(=N)CNC(N)=O)C3)C[C@H]12 | 25 (≈ 68.4 µM) | 3.13 (≈ 8.57 µM) | 0.39 (≈ 1.07 µM) |  | < 0.025 | 47 | 0.2 (≈ 0.547 µM) | 20 |  | 
8 | C/N=C/N1CC[C@@H](C2=C(C(=O)O)N3C(=O)[C@H]([C@@H](C)O)[C@H]3C2)C1 | 3.13 (≈ 10.2 µM) | 0.78 (≈ 2.54 µM) | 0.39 (≈ 1.27 µM) | 7.8 | < 0.025 | 48 | 0.2 (≈ 0.651 µM) | 91 |  | 
9 | C[C@@H](O)[C@H]1C(=O)N2C(C(=O)O)=C([C@@H]3CCN(C(=N)CC(N)=O)C3)C[C@H]12 | 6.25 (≈ 17.8 µM) | 1.56 (≈ 4.45 µM) | 0.39 (≈ 1.11 µM) | 13 | < 0.025 | 43 | 0.39 (≈ 1.11 µM) | 14 |  | 
10 | C[C@@H](O)[C@H]1C(=O)N2C(C(=O)O)=C([C@H]3CCNC3)C[C@H]12 | 100 (≈ 376 µM) | 6.25 (≈ 23.5 µM) | 0.78 (≈ 2.93 µM) | 16 | < 0.025 | 46 | 0.39 (≈ 1.46 µM) | 78 |  | 
11 | C/C(=C\[C@@]1(C)CCCN1)C1=C(C(=O)O)N2C(=O)[C@H]([C@@H](C)O)[C@H]2C1 | 50 (≈ 156 µM) | 1.56 (≈ 4.87 µM) | 3.13 (≈ 9.77 µM) | 4.3 | < 0.025 | 61 | 0.39 (≈ 1.22 µM) | 45 |  | 
12 | C[C@@H](O)[C@H]1C(=O)N2C(C(=O)O)=C(C3CCCNC3)C[C@H]12 (stereo partly drawn) | 50 (≈ 178 µM) | 25 (≈ 89.2 µM) | 1.56 (≈ 5.56 µM) |  | < 0.025 | 59 | 0.39 (≈ 1.39 µM) |  |  | 4.4
13 | C[C@@H](O)[C@H]1C(=O)N2C(C(=O)O)=C([C@@H]3CCN(C=N)C3)C[C@H]12 | 25 (≈ 85.2 µM) | 1.56 (≈ 5.32 µM) | 0.2 (≈ 0.682 µM) | 15 | < 0.025 | 41 | 0.1 (≈ 0.341 µM) | 39 |  | 
14 | C[C@@H](O)[C@H]1C(=O)N2C(C(=O)O)=C([C@@H]3CCN(C(=N)COC(N)=O)C3)C[C@H]12 | 6.25 (≈ 17.1 µM) | 1.56 (≈ 4.26 µM) | 0.78 (≈ 2.13 µM) |  | < 0.025 | 42 | 0.1 (≈ 0.273 µM) | 13 |  | 
15 | C[C@@H](O)[C@H]1C(=O)N2C(C(=O)O)=C(SCCN=CN)C[C@H]12 [IMIPENEM ANHYDROUS] |  |  |  |  |  | 29 |  |  |  | 
16 | C[C@@H](O)[C@H]1C(=O)N2C(C(=O)O)=C([C@@H]3CCN(C4=NCCC4)C3)C[C@H]12 | 12.5 (≈ 37.5 µM) | 1.56 (≈ 4.68 µM) | 0.39 (≈ 1.17 µM) | 8.4 | < 0.025 | 50 | 0.2 (≈ 0.6 µM) | 28 |  | 
17 | C[C@@H](O)[C@H]1C(=O)N2C(C(=O)O)=C([C@@H]3CCN(C(=N)CO)C3)C[C@H]12 | 25 (≈ 77.3 µM) | 3.13 (≈ 9.68 µM) | 0.78 (≈ 2.41 µM) | 13 | < 0.025 | 52 | 0.39 (≈ 1.21 µM) |  |  | 
18 | CC(=N)N1CC[C@H](SC2=C(C(=O)O)N3C(=O)[C@H]([C@@H](C)O)[C@H]3C2)C1 [PANIPENEM] | 50 (≈ 147 µM) | 1.56 (≈ 4.6 µM) | 0.39 (≈ 1.15 µM) |  | 0.025 (≈ 0.0737 µM) | 25 | 0.2 (≈ 0.589 µM) |  |  | 
